Measurements published in US8492559B2, “Substituted indole compounds” (Gruenenthal GmbH, priority 2009, dated 2013).

Biological target: T1, B1R receptor of the rat (rB1R) (Rattus norvegicus, UniProt P97583)
T1 construct: expressed in transfected cells; host or cells: CHO K1 cells
T1 sequence (P97583 1-337): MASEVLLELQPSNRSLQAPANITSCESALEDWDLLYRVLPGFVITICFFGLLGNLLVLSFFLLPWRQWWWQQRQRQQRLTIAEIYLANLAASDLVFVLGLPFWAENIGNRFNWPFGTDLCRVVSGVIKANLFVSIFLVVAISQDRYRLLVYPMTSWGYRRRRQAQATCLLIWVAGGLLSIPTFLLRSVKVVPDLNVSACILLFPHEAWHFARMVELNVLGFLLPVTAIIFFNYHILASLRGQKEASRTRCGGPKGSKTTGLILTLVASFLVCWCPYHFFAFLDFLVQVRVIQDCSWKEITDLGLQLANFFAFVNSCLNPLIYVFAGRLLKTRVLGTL
Assay: Functional investigation on the bradykinin 1 receptor (B1R), FLIPR Ca2+ assay, rB1R cells
Type: cell-based
Conditions: 10 μM test substance; CHO K1 cells with rat B1R; agonist Des-Arg9 bradykinin; % of maximum achievable inhibition
Method: The indication in % activation is based on the Ca^2+ signal after addition of Lys-Des-[…] bradykinin (0.5 nM) or Des-[…] bradykinin (100 nM). Antagonists lead to a suppression of the Ca^2+ influx following administration of the agonist. The % inhibition in comparison with the maximum achievable inhibition is indicated. […] According to this assay, the Ca^2+ inflow through the channel is quantified with the aid of a Ca^2+-sensitive dye (Fluo-4 type, Molecular Probes Europe BV, Leiden, Netherlands) in a fluorescent imaging plate reader (FLIPR, Molecular Devices, Sunnyvale, USA). […] For functional investigations these cells are plated-out onto black 96-well plates with a clear base (BD Biosciences, Heidelberg, Germany or Greiner, Frickenhausen, Germany) in a density of 20,000-35,000 cells/well. Overnight the cells are incubated at 37° C. and 5% CO2 in culture medium (hB1R cells: Ham's Nutrient Mixture F12, Gibco Invitrogen GmbH, Karlsruhe, Germany or DMEM, Sigma-Aldrich, Taufkirchen, Germany; rB1R cells: D-MEM/F12, Gibco Invitrogen, Karlsruhe, Germany) with 10 vol. % FBS (foetal bovine serum, Gibco Invitrogen GmbH, Karlsruhe, Germany or PAN Biotech GmbH, Aidenbach, Germany). On the following day the cells are loaded with 2.13 μM Fluo-4 (Molecular Probes Europe BV, Leiden, Netherlands) in HBSS buffer (Hank's buffered saline solution, Gibco Invitrogen GmbH, Karlsruhe, Germany) with 2.5 mM probenecid (Sigma-Aldrich, Taufkirchen, Germany) and 10 mM HEPES (Sigma-Aldrich, Taufkirchen, Germany) for 60 min at 37° C. […] Sigma-Aldrich, Taufkirchen, Germany), 5.6 mM glucose and 0.05% gelatine (Merck KGaA, Darmstadt, Germany) is added. After a further incubation of 20 minutes at room temperature, the plates are inserted into the FLIPR for Ca^2+ measurement. Alternatively they are washed with buffer A (15 mM HEPES, 80 mM NaCl, 5 mM KCl, 1.2 mM CaCl2, 0.7 mM MgSO4, 2 g/l glucose, 2.5 mM probenecid) and loaded with buffer A with added 2.5 μM Fluo-4 and 0.025% Pluronic F127 (Sigma-Aldrich, Taufkirchen, Germany). The cells are then washed twice with buffer A and incubated for 30 minutes with buffer A, which additionally contains 0.05% BSA and 0.05% gelatine, at room temperature and then used for Ca^2+ measurement in the FLIPR. The Ca^2+-dependent fluorescence is measured here before and after addition of substances (λex=488 nm, λem=540 nm). The quantification is performed by measuring the highest fluorescence intensity (FC, fluorescence counts) over time. The FLIPR protocol comprises two additions of substance. […] Lys-Des-[…] bradykinin>=50 nM; rB1R: […] Antagonists lead to a suppression of the Ca^2+ inflow. The % inhibition in comparison with the maximum achievable inhibition is calculated. The substances are added in varying concentrations in order to determine the IC50 value. Double or triple determinations (n=2 or n=3) are performed and these are repeated in at least one further independent experiment (N>=2).

With `COc1cc(C)c(S(=O)(=O)Nc2ccc3ccn(CC(=O)N4CCN(CC5CCN(C)CC5)CC4)c3c2)c(C)c1` [G_CC-4, 4-Methoxy-2,6-dimethyl-N-[1-[2-[4-[(1-methyl-piperdin-4-yl)-methyl]-piperazin-1-yl]-2-oxo-ethyl]-1H-indol-6-yl]-benzenesulfonic acid amide] as the compound, how does the “B1R antagonism, rat [10 μM] % inhibition” value read?
Its value is 99%.

For `COc1cc(C)c(S(=O)(=O)Nc2cccc3ccn(CC(=O)N4CCN(CC5CCN(C)CC5)CC4)c23)c(C)c1` [G_CC-7, 4-Methoxy-2,6-dimethyl-N-[1-[2-[4-[(1-methyl-piperdin-4-yl)-methyl]-piperazin-1-yl]-2-oxo-ethyl]-1H-indol-7-yl]-benzenesulfonic acid amide], which “B1R antagonism, rat [10 μM] % inhibition” value is on record?
The value was 100%.

Same assay, conditions: 10 μM test substance; CHO K1 cells with rat B1R; agonist Des-Arg9 bradykinin; % of maximum achievable inhibition; 10 µM

Which “B1R antagonism, rat [10 μM] % inhibition” value does the source give for `COc1cc(C)c(S(=O)(=O)Nc2cccc3ccn(CC(=O)N4CCC(Oc5ccncc5)CC4)c23)c(C)c1` [Compound G-03, 4-Methoxy-2,6-dimethyl-N-[1-[2-oxo-2-(4-pyridin-4-yloxy-piperidin-1-yl)-ethyl]-1H-indol-7-yl]-benzenesulfonic acid amide] here?
The value was 90%.

Same assay, conditions: CHO-K1, 10 μM test substance; CHO K1 cells with rat B1R; agonist Des-Arg9 bradykinin; % of maximum achievable inhibition; read-out: B1R antagonism, rat [10 μM] % inhibition

How did the inhibition at 10 µM turn out when `COc1cc(C)c(S(=O)(=O)Nc2ccc3ccn(CC(=O)N4CCN(C5CCN(C)CC5)CC4)c3c2)c(C)c1` [G_CC-1, 4-Methoxy-2,6-dimethyl-N-[1-[2-[4-(1-methyl-piperidin-4-yl)-piperazin-1-yl]-2-oxo-ethyl]-1H-indol-6-yl]-benzenesulfonic acid amide] was run?
Its inhibition at 10 µM is 62%.

Which inhibition at 10 µM does the source give for `COc1cc(C)c(S(=O)(=O)Nc2ccc3ccn(CC(=O)N4CCN(c5ncccn5)CC4)c3c2)c(C)c1` [G_CC-3, 4-Methoxy-2,6-dimethyl-N-[1-[2-oxo-2-(4-pyrimidin-2-yl-piperazin-1-yl)-ethyl]-1H-indol-6-yl]-benzenesulfonic acid amide] here?
The inhibition at 10 µM was 82%.

With `COc1cc(C)c(S(=O)(=O)Nc2cccc3ccn(CC(=O)N4CCN(c5ccc(F)cc5)CC4)c23)c(C)c1` [G_CC-5, N-[1-[2-[4-(4-fluorophenyl)-piperazin-1-yl]-2-oxo-ethyl]-1H-indol-7-yl]-4-methoxy-2,6-dimethyl-benzenesulfonic acid amide] as the compound, how does the inhibition at 10 µM read?
The inhibition at 10 µM was 59%.

Which inhibition at 10 µM does the source give for `COc1cc(C)c(S(=O)(=O)Nc2cccc3ccn(CC(=O)N4CCN(c5ncccn5)CC4)c23)c(C)c1` [G_CC-6, 4-Methoxy-2,6-dimethyl-N-[1-[2-oxo-2-(4-pyrimidin-2-yl-piperazin-1-yl)-ethyl]-1H-indol-7-yl]-benzenesulfonic acid amide] here?
The inhibition at 10 µM was 73%.

Which inhibition at 10 µM does the source give for `COc1cc(C)c(S(=O)(=O)Nc2ccc3ccn(CC(=O)NCC4CCN(c5ccncc5)CC4)c3c2)c(C)c1` [G_CC-9, 2-[6-[[(4-Methoxy-2,6-dimethyl-phenyl)sulfonyl]amino]-1H-indol-1-yl]-N-[(1-pyridin-4-yl-piperidin-4-yl)-methyl]-acetamide] here?
The inhibition at 10 µM was 65%.

With `COc1cc(C)c(S(=O)(=O)Nc2ccc3ccn(CC(=O)N4CCC5(CCN(Cc6ccccc6)C5)C4)c3c2)c(C)c1` (centres unmarked) [G_CC-10, N-[1-[2-(3-Benzyl-3,7-diazaspiro[4.4]nonan-7-yl)-2-oxo-ethyl]-1H-indol-6-yl]-4-methoxy-2,6-dimethyl-benzenesulfonic acid amide] as the compound, how does the inhibition at 10 µM read?
Its inhibition at 10 µM is 69%.

With `COc1cc(C)c(S(=O)(=O)Nc2ccc3ccn(CC(=O)N(C)CCCN4CCC(c5ccccc5)(N(C)C)CC4)c3c2)c(C)c1` [G_CC-11, N-[3-(4-Dimethylamino-4-phenyl-piperidin-1-yl)-propyl]-2-[6-[[(4-methoxy-2,6-dimethyl-phenyl)sulfonyl]amino]-1H-indol-1-yl]-N-methyl-acetamide] as the compound, how does the inhibition at 10 µM read?
Its inhibition at 10 µM is 87%.

With `COc1cc(C)c(S(=O)(=O)Nc2cccc3ccn(CC(=O)N4CCC5(CC4)CCN(c4ccc(F)cc4)C5=O)c23)c(C)c1` [G_CC-12, N-[1-[2-[3-(4-Fluorophenyl)-4-oxo-3,8-diazaspiro[4.5]decan-8-yl]-2-oxo-ethyl]-1H-indol-7-yl]-4-methoxy-2,6-dimethyl-benzenesulfonic acid amide] as the compound, how does the inhibition at 10 µM read?
The inhibition at 10 µM was 58%.

Which inhibition at 10 µM does the source give for `COc1cc(C)c(S(=O)(=O)Nc2cccc3ccn(CC(=O)N4CCC5(CCN(Cc6ccccc6)C5)C4)c23)c(C)c1` (centres unmarked) [G_CC-13, N-[1-[2-(3-Benzyl-3,7-diazaspiro[4.4]nonan-7-yl)-2-oxo-ethyl]-1H-indol-7-yl]-4-methoxy-2,6-dimethyl-benzenesulfonic acid amide] here?
The inhibition at 10 µM was 58%.

How did the inhibition at 10 µM turn out when `COc1cc(C)c(S(=O)(=O)Nc2cccc3ccn(CC(=O)N(C)CCCN4CCC(c5ccccc5)(N(C)C)CC4)c23)c(C)c1` [G_CC-14, N-[3-(4-Dimethylamino-4-phenyl-piperidin-1-yl)-propyl]-2-[7-[[(4-methoxy-2,6-dimethyl-phenyl)sulfonyl]amino]-1H-indol-1-yl]-N-methyl-acetamide] was run?
Its inhibition at 10 µM is 86%.

How did the inhibition at 10 µM turn out when `Cc1cc(S(=O)(=O)Nc2ccc3ccn(CC(=O)N(C)CCCN4CCC(c5ccccc5)(N(C)C)CC4)c3c2)c(C)cc1Cl` [G_CC-15, 2-[6-[[(4-Chloro-2,5-dimethyl-phenyl)sulfonyl]amino]-1H-indol-1-yl]-N-[3-(4-dimethylamino-4-phenyl-piperidin-1-yl)-propyl]-N-methyl-acetamide] was run?
Its inhibition at 10 µM is 65%.

Which inhibition at 10 µM does the source give for `CN(CCCN1CCC(c2ccccc2)(N(C)C)CC1)C(=O)Cn1ccc2cccc(NS(=O)(=O)c3cccc4ccccc34)c21` [G_CC-16, N-[3-(4-Dimethylamino-4-phenyl-piperidin-1-yl)-propyl]-N-methyl-2-[7-[(naphthalen-1-ylsulfonyl)amino]-1H-indol-1-yl]-acetamide] here?
The inhibition at 10 µM was 67%.

For `COc1cc(C)c(S(=O)(=O)Nc2cccc3ccn(CC(=O)NC4CCC(c5ccccc5)(N5CCC5)CC4)c23)c(C)c1` (centres unmarked) [G_CC-17, N-[4-(Azetidin-1-yl)-4-phenyl-cyclohexyl]-2-[7-[[(4-methoxy-2,6-dimethyl-phenyl)sulfonyl]amino]-1H-indol-1-yl]-acetamide], which inhibition at 10 µM is on record?
The inhibition at 10 µM was 52%.

Which inhibition at 10 µM does the source give for `COc1cc(C)c(S(=O)(=O)Nc2cccc3ccn(CC(=O)N(C)CCCN4CCC(c5cccs5)(N(C)C)CC4)c23)c(C)c1` [G_CC-18, N-[3-(4-Dimethylamino-4-thiophen-2-yl-piperidin-1-yl)-propyl]-2-[7-[[(4-methoxy-2,6-dimethyl-phenyl)sulfonyl]amino]-1H-indol-1-yl]-N-methyl-acetamide] here?
Its inhibition at 10 µM is 87%.

With `COc1cc(C)c(S(=O)(=O)Nc2cccc3ccn(CC(=O)NCCN4CCC(c5cccs5)(N(C)C)CC4)c23)c(C)c1` [G_CC-19, N-[2-(4-Dimethylamino-4-thiophen-2-yl-piperidin-1-yl)-ethyl]-2-[7-[[(4-methoxy-2,6-dimethyl-phenyl)sulfonyl]amino]-1H-indol-1-yl]-acetamide] as the compound, how does the inhibition at 10 µM read?
Its inhibition at 10 µM is 68%.

`COc1cc(C)c(S(=O)(=O)Nc2cccc3ccn(CC(=O)N4CCC(c5cccs5)(N(C)C)CC4)c23)c(C)c1` [G_CC-20, N-[1-[2-(4-Dimethylamino-4-thiophen-2-yl-piperidin-1-yl)-2-oxo-ethyl]-1H-indol-7-yl]-4-methoxy-2,6-dimethyl-benzenesulfonic acid amide] was tested. Which inhibition at 10 µM did it give?
Its inhibition at 10 µM is 86%.

Which inhibition at 10 µM does the source give for `COc1cc(C)c(S(=O)(=O)Nc2cccc3ccn(CC(=O)NCCC4CCN(c5ccncc5)CC4)c23)c(C)c1` [G_CC-21, 2-[7-[[(4-Methoxy-2,6-dimethyl-phenyl)sulfonyl]amino]-1H-indol-1-yl]-N-[2-(1-pyridin-4-yl-piperidin-4-yl)-ethyl]-acetamide] here?
The inhibition at 10 µM was 97%.
